The source made the active and inactive calls. No cut-off for these calls is given here.
Tests used:
[1] = Cytotoxicity against african green monkey Vero E6 cells assessed as reduction in cell viability after 26 hrs by MTS assay; format: toxicity, cell-based, Vero C1008; details: chlorocebus sabaeus
[2] = biological target: T1, Replicase polyprotein 1ab (Severe acute respiratory syndrome coronavirus 2, UniProt P0DTD1); assay: Inhibition of SARS-CoV-2 main protease using MCA-AVLQSGFR-Lys(Dnp)-Lys-NH2 as substrate preincubated for 30 mins followed by substrate addition and measured every 10 sec for 10 mins by FRET assay
SARS-CoV-2 [3] = assay: Antiviral activity against SARS-CoV-2 infected in Vero E6 cells preincubated for 1 hr followed by methylcellulose addition and measured after 25 to 26 hrs by EliSpot reader based analysis; format: functional, organism-based; details: Severe acute respiratory syndrome coronavirus 2, Vero C1008
[4] = biological target: T1, Replicase polyprotein 1ab; assay: Inhibition of SARS-CoV-2 main protease
SARS-CoV-2 [5] = assay: Antiviral activity against SARS-CoV-2 infected in Vero E6 cells; format: functional, organism-based; details: Severe acute respiratory syndrome coronavirus 2, Vero C1008
[6] = Cytotoxicity against african green monkey Vero E6 cells; format: toxicity, cell-based, Vero C1008; details: chlorocebus sabaeus
[7] = biological target: T1, Replicase polyprotein 1ab; assay: Inhibition of SARS-CoV-2 main protease incubated for 30 mins by FRET based assay
[8] = biological target: Replicase polyprotein 1ab (Severe acute respiratory syndrome coronavirus 2) (UniProt P0DTD1); assay: Potency index, ratio of IC50 for MCULE-5948770040 to IC50 for test compound for inhibition of SARS-COV-2 main protease
[9] = biological target: Replicase polyprotein 1ab (Severe acute respiratory syndrome coronavirus 2) (UniProt P0DTD1); assay: Irreversible inhibition of SARS-CoV-2 main protease assessed as ratio of Kinact/Ki incubated for 60 mins by MS analysis
[10] = biological target: Replicase polyprotein 1ab (Severe acute respiratory syndrome coronavirus 2) (UniProt P0DTD1); assay: Covalent inhibition of SARS-CoV-2 main protease assessed as protein-compound adduct formation incubated for 30 mins by MALDI-TOF analysis
Cathepsin B = Cathepsin B (Homo sapiens, UniProt P07858); assay: Inhibition of human cathepsin B using Z-Leu-Arg-AMC as substrate by […] assay; format: toxicity
Cathepsin F = biological target: T2, Cathepsin F (Homo sapiens, UniProt Q9UBX1); assay: Inhibition of human cathepsin F using Z-Phe-Arg-AMC as substrate by […] assay; format: toxicity
T2 sequence (Q9UBX1 whole entry): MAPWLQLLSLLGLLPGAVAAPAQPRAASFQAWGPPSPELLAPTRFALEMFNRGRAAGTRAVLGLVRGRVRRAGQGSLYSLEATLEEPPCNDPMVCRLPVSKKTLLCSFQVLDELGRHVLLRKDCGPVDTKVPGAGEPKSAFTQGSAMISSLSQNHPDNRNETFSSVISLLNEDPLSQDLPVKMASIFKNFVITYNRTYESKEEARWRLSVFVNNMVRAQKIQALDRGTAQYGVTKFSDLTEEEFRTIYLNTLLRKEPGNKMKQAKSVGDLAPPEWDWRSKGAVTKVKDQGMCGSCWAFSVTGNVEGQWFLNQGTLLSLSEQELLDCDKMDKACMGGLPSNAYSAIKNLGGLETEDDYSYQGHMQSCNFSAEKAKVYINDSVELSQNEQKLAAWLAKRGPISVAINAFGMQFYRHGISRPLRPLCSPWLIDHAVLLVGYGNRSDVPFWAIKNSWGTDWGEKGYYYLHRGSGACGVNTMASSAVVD

Cathepsin K = biological target: T3, Cathepsin K (Homo sapiens, UniProt P43235); assay: Inhibition of human cathepsin K using Ac-LR-AFC as substrate by […] assay; format: toxicity
T3 sequence (P43235 whole entry): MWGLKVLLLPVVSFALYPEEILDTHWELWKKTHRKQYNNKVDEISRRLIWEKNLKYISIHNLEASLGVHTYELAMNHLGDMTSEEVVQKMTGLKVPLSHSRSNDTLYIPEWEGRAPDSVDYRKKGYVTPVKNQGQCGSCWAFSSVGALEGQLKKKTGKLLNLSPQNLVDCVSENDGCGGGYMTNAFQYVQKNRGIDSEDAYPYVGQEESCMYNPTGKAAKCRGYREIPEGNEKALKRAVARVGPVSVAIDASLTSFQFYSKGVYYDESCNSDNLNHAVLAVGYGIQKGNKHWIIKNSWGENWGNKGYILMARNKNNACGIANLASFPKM

Procathepsin L = Procathepsin L (Homo sapiens, UniProt P07711); assay: Inhibition of human cathepsin L using Z-Leu-Arg-AMC as substrate by […] assay; format: toxicity
Caspase-3 = biological target: T4, Caspase-3 (Homo sapiens, UniProt P42574); assay: Inhibition of human caspase 3 using Ac-Asp-Glu-Val-Asp-pNA as substrate by […] assay; format: toxicity
T4 sequence (P42574 whole entry): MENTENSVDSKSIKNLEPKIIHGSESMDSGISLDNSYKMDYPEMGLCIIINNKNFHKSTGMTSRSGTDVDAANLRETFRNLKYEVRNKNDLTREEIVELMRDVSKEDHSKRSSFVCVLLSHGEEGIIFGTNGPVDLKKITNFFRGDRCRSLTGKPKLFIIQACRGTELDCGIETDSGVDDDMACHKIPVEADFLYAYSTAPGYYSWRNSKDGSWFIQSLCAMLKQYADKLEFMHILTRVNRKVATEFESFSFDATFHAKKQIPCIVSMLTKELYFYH

SARS-CoV-2 [11] = assay: Antiviral activity against SARS-CoV-2 infected in Vero E6 cells assessed as reduction in virus induced cytopathic effect incubated for 3 days; format: functional, organism-based; details: Severe acute respiratory syndrome coronavirus 2, Vero C1008, 72 h
SARS-CoV-2 [12] = assay: Antiviral activity against SARS-CoV-2 infected in VeroE6 cells measured after 24 hrs post infection by plaque assay; format: functional, organism-based; details: Severe acute respiratory syndrome coronavirus 2, Vero C1008, 24 h

Sequence of Procathepsin L (P07711 whole entry): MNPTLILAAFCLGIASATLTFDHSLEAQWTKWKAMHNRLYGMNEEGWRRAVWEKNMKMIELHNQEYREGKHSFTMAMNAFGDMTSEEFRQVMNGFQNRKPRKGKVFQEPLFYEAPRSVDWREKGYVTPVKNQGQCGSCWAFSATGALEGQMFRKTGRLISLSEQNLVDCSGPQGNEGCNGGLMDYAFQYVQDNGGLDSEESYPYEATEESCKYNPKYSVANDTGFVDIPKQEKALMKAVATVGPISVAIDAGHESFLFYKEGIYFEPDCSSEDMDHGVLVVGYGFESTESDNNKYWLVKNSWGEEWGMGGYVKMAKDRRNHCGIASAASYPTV

Structure (SMILES)	CC50 at 26 h [1]	IC50 [2]	EC50 (SARS-CoV-2 [3])	further results
CC(C)(C)[C@H](NC(=O)C(F)(F)F)C(=O)N1C[C@H]2[C@@H]([C@H]1C(=O)N[C@H](C#N)C[C@@H]1CCNC1=O)C2(C)C	> 100 µM			
O=C(NCc1cccs1)[C@@H]1CN(C(=O)c2cccnc2)CCN1c1ccc(Cl)c(Cl)c1	> 100 µM	0.4 µM	0.4 µM	
[2H][C@](C(=O)N[C@@H](C)c1ccc(F)cc1)(c1cccnc1)N(C(=O)C(C)=O)c1ccc2c(c1)oc1ccccc12				IC50 [4]: 0.008 µM; EC50 (SARS-CoV-2 [5]): 0.9 µM
O=c1c2ccccc2[se]n1-c1ccccc1 [EBSELEN]				CC50 [6]: > 20 µM
C#CC(=O)N1CCN(c2ccc(Cl)c(Cl)c2)[C@H](C(=O)NCc2cccs2)C1	11.9 µM	2.8 µM	1.37 µM	
C[C@H](NC(=O)[C@@H](c1cccnc1)N(C(=O)C(Cl)Cl)c1ccc(-c2ccccc2)cc1)c1ccccc1				EC50 (SARS-CoV-2 [5]): 0.67 µM; IC50 [7]: 0.67 µM; CC50 [6]: 33.1 µM
CC(C)(C)NC(=O)C(c1cccnc1)N(C(=O)c1ccco1)c1ccc(C(C)(C)C)cc1 (stereo unspecified)				EC50 (SARS-CoV-2 [5]): > 20 µM
CCC(CC)COC(=O)[C@H](C)N[P@](=O)(OC[C@H]1O[C@@](C#N)(c2ccc3c(N)ncnn23)[C@H](O)[C@@H]1O)Oc1ccccc1	> 100 µM		2.27 µM	
O=C(NCc1cccs1)[C@@H]1CN(C(=O)CCl)CCN1c1ccc(Cl)c(Cl)c1	12.5 µM	0.18 µM	2.64 µM	Ratio IC50 [8]: 28; Ratio [9]: 21500 M⁻¹ s⁻¹; inhibition [10]: Active; IC50 (Cathepsin B): > 30 µM; IC50 (Cathepsin F): > 30 µM; IC50 (Cathepsin K): > 30 µM; IC50 (Procathepsin L): > 30 µM; IC50 (Caspase-3): > 30 µM
O=C(NCc1cccs1)[C@@H]1CN(C(=O)C(F)(F)S(=O)(=O)F)CCN1c1ccc(Cl)c(Cl)c1	> 100 µM	1.6 µM	183 µM	
COc1cccc2[nH]c(C(=O)N[C@@H](CC(C)C)C(=O)N[C@@H](C[C@@H]3CCNC3=O)C(=O)CO)cc12 [PF-00835231]				EC50 (SARS-CoV-2 [11]): 0.23 µM
O=C[C@H](C[C@@H]1CCNC1=O)NC(=O)[C@H](CC1CCCCC1)NC(=O)c1cc2ccccc2[nH]1				EC50 (SARS-CoV-2 [12]): 0.42 µM
O=C(NCc1cccs1)[C@@H]1CN(C(=O)CBr)CCN1c1ccc(Cl)c(Cl)c1	6.5 µM	0.31 µM	4.24 µM	Ratio IC50 [8]: 16
